# Data from patent US7947854B2, “Bis-cationic compounds and use thereof” (The University of Sydney, priority 2003, dated 2011).
# Tests used:
# [1] = system: Cryptococcus neoformans ATCC 90112; assay: In vitro antifungal activity, yeasts, NCCLS M27-A; format: cell-based; conditions: Table 9
# Text: (§1) The assay used for yeasts (Candida; Cryptococcus) is that of the National Committee for Clinical Laboratory Standards. 1997. Reference Method for Broth Dilution Antifungal Susceptibility Testing of Yeasts: Approved Standard. NCCLS document M27-A.Villanova, Pa., USA as published in Ghannoum, M. A., A. S. Ibrahim, Y. Fu, M. C. Shafiq, J. E Edwards, Jr. and R. S. Criddle. 1992. Susceptibility testing of Cryptococcus neoformans: A microdilution technique. J. Clin. Microbiol. 30:2881-2886.
# [2] = system: Candida albicans ATCC 10231; assay: In vitro antifungal activity, yeasts, NCCLS M27-A; format: cell-based; conditions: Table 9
# Text: as §1
# [3] = system: Cryptococcus neoformans ATCC 90112; assay: Antifungal susceptibility testing, microdilution MIC; format: cell-based
# How it was run: (§2)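 Standard microdilution method, run in duplicate, using serial dilutions of cationic compounds.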
# [4] = system: Candida albicans ATCC 10231; assay: as above; format: cell-based
# How it was run: as §2
# [5] = system: Aspergillus flavus ATCC 204 304; assay: In vitro antifungal activity, filamentous fungi, NCCLS M38-A; format: cell-based
# Text: (§3) The assay used for filamentous fungi (Aspergillus; Scedosporium; Fusarium) was that published by the National Committee for Clinical Laboratory Standards. 2002. Reference Method for Broth Dilution Antifungal Susceptibility Testing of Filamentous Fungi: Approved Standard. NCCLS document M38-A.Villanova, Pa., USA.
# [6] = system: Scedosporium apiospermum 1-003-056; assay: as above; format: cell-based
# Text: as §3
# [7] = system: Scedosporium prolificans 1-003-040; assay: as above; format: cell-based
# Text: as §3
# [8] = system: Fusarium solani 04-132-4207; assay: as above; format: cell-based
# Text: as §3
# [9] = system: Aspergillus terreus ATCC 03-232-378; assay: as above; format: cell-based
# Text: as §3
# [10] = system: Aspergillus fumigatus ATCC 204 305; assay: as above; format: cell-based
# Text: as §3
# [11] = system: secreted phospholipase B (PLB activity); assay: Radiometric assay, secreted PLB activity; format: biochemical, Cryptococcus neoformans H99; conditions: for PLB, percentage inhibition of activity: Secretory Cryptococcal H99 Phospholipase
# How it was run: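 Secreted enzyme was taken from cell-free supernatant of Cryptococcus isolate H99 cells incubated 24 h at 37° C. Reactions at 37° C, pH 4.0 imidazole acetate, used 800 μM DPPC with [14C]-dipalmitoyl PC and 1 μg protein for 22 min. PLB was measured as radiolabelled PC loss by TLC, with inhibition expressed versus inhibitor-free control; compounds were tested at 25 and 250 μM, then 2.5 and 0.25 μM.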
# [12] = system: C. neoformans strain H99 phospholipases; assay: Inhibition of C. neoformans strain H99 phospholipases (all enzymes and activities); format: biochemical, Cryptococcus neoformans H99
# Experimental: Radiometric assay method for phospholipases. Enzyme activities were measured as described previously in a final volume of 125 μL at 37° C. For the determination of secreted PLB activity, carrier dipalmitoyl phosphatidylcholine (DPPC, final concentration 800 μM) and 1,2-di[1-^14C] palmitoyl phosphatidylcholine (20,000 dpm) were dried under nitrogen and suspended in 125 mM imidazole acetate buffer (assay buffer, pH 4.0) by sonication using a Branson 450 sonifier. The reaction time was 22 min, using 1 μg total protein and PLB activity was determined by the rate of decrease of the radiolabelled PC substrate, with appearance of the label in free fatty acid. […] These activities were measured by the appearance of radiolabel from PC in Lyso PC, diacylglycerol and phosphatidic acid, respectively.
# Secreted LPL and LPTA activities were measured simultaneously in a reaction mixture containing 1-[^14C]palmitoyl lyso-PC (25,000 dpm) and carrier lyso-PC (final concentration 200 μM) in assay buffer. The reaction time was […] with 1 μg of total protein and LPL activity was measured by the rate of loss of 1-[^14C]palmitoyl lyso-PC with release of radiolabelled fatty acids. […]
# All reactions were terminated by adding 0.5 mL of chloroform:methanol (2:1 v/v). […] 37:911-917, separated by TLC and quantified as previously described. […]
# [13] = molecular target: T1, Porcine pancreatic phospholipase A2 (Sus scrofa, UniProt P00592); assay: Pancreatic phospholipase assay; format: biochemical; conditions: read-out: ppPLA2, percentage inhibition of activity
# T1 construct: purchased Sigma, St. Louis MO, USA
# Experimental: Pancreatic phospholipase assay. Porcine pancreatic phospholipase A2 suspension in 3.2M ammonium sulfate (2.9 mg protein/mL, Sigma St.Louis Mo., USA) was used. One part of well mixed enzyme suspension was added to 4 parts of buffer (10 mM Tris/HCl, pH 8.2; 10 mM CaCl2. Activity and inhibition by test compounds was then measured by the radiometric method described in Example 2 for fungal PLB activity. However, 25 μL enzyme solution was used, and the reaction time was 1 hour. These conditions result in ˜60% substrate conversion in the inhibitor-free control.
# [14] = system: secreted phospholipase B (LPL/LPTA activities); assay: Radiometric assay, secreted LPL and LPTA activities (Lyso assay); format: biochemical, Cryptococcus neoformans H99
# Experimental: Fungal isolates and media. […] Isolate H99 was kindly supplied by Dr. Gary Cox (Duke University Medical Center, Durham, N.C., USA), and subcultured onto Sabouraud dextrose agar (SDA) at 30° C.
# Preparation of supernatants containing secreted phospholipase activities. Isolate H99 was grown to confluence on SDA in 16 cm diameter Petri dishes for 72 h at 30° C. in air. Cells scraped from 10-20 dishes were washed sequentially with isotonic saline and imidazole buffer (10 mM imidazole, 2 mM CaCl2, 2 mM Mg Cl2, 56 mM D-Glucose, made up in isotonic saline, pH 5.5), resuspended in a volume of this buffer of about 10% of the cell volume, and incubated for 24 h at 37° C. The cell-free supernatant was separated by centrifugation as previously described and stored at −70° C.
# Secreted LPL and LPTA activities were measured simultaneously in a reaction mixture containing 1-[^14C]palmitoyl lyso-PC (25,000 dpm) and carrier lyso-PC (final concentration 200 μM) in assay buffer. The reaction time was […] with 1 μg of total protein and LPL activity was measured by the rate of loss of 1-[^14C]palmitoyl lyso-PC with release of radiolabelled fatty acids. LPTA activity was estimated from the rate of formation of radiolabelled PC.
# All reactions were terminated by adding 0.5 mL of chloroform:methanol (2:1 v/v). The reaction products were extracted by the method as disclosed in Bligh, E. C. and W. J. Dyer. 1959 ‘A rapid method of total lipid extraction and purification.’ Can. J. Biochem. Physiol. 37:911-917, separated by TLC and quantified as previously described. In the case of PLC activity, the TLC plates were developed in petroleum ether (BP 60-80° C.): diethyl ether: acetic acid (90:15:1, v/v/v) instead of chloroform:methanol:water (65:25:4, v/v/v).
# Preparation of inhibitors and use in assays. The following compounds were tested (for structures, see FIG. 2): compound 1, 1,12-bis(tributylphosphonium)dodecane dibromide (Fluka AG, Buchs, Switzerland); compound 2, 1,10-bis(tributylammonium)-decane dibromide; compound 3, 1,12-bis(tributylammonium)do-decane dibromide (both synthesised in-house); compound 4, 1,10-bis(trimethylammonium)decane dibromide [“decamethonium”] (Sigma, St. Louis Mo., USA). All compounds were prepared as stock solutions of 700 μM in assay buffer containing 5 mM EDTA, which was then diluted serially with buffer to obtain solutions of 70, 7, 0.7 and 0.07 μM. In each assay, 45 μL of these solutions was used, and the final volume of 125 μL was made up of substrate, enzyme and buffer. The radiometric assay was carried out as above. Inhibition was calculated as the percent of substrates (DPPC or Lyso-PC) remaining in the case of PLB and LPL activities, or of DPPC produced, in the case of the LPTA activity. The amounts converted, or produced, in the inhibitor-free control were normalised to 100%, and the inhibition calculated against it. All assays were done in triplicate.
# Under these conditions only PLB, LPL and LPTA activities (both secreted and cell-associated) were measured. Initially, compounds deemed to be potential inhibitors were assayed at 25 and 250 μM. Those showing some inhibition were then also assayed at 2.5 and 0.25 μM.
# [15] = system: MRSA (methicillin resistant S. aureus); assay: In vitro antibacterial activity, NCCLS M7-A6; format: cell-based; conditions: Staphylococcus aureus, read-out: MIC MRSA (methicillin resistant S. aureus)
# Experimental: (§4) Two bis-cationic compounds were tested for antibacterial activity. The assay used was that published by the National Committee for Clinical Laboratory Standards. 2003. Methods for Dilution Antimicrobial Susceptibility Tests for Bacteria That Grow Aerobically: Approved Standard—Sixth Edition. NCCLS document M7-A6. Villanova, Pa., USA.
# Escherichia coli 25922 = assay: In vitro antibacterial activity, NCCLS M7-A6; format: cell-based
# Experimental: as §4
# [16] = system: Streptococcus pneumonia 49619; assay: In vitro antibacterial activity, NCCLS M7-A6; format: cell-based; conditions: Streptococcus pneumoniae
# Experimental: as §4
# [17] = system: Staphylococcus aureus 25923; assay: In vitro antibacterial activity, NCCLS M7-A6; format: cell-based
# Experimental: as §4
# T1 sequence (P00592 23-146): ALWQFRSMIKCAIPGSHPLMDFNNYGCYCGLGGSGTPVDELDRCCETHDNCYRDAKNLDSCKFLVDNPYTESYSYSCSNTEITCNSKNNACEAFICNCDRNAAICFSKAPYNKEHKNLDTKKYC
smiles,measurement,setting,value
"C[C@@H]1[C@H](O)[C@@H](C)/C=C/C=C/C=C/C=C/C=C/C=C/C=C/[C@H](O[C@@H]2O[C@H](C)[C@@H](O)[C@H](N)[C@@H]2O)C[C@@H]2O[C@](O)(C[C@@H](O)C[C@@H](O)[C@H](O)CC[C@@H](O)C[C@@H](O)CC(=O)O[C@H]1C)C[C@H](O)[C@H]2C(=O)O [Amphotericin B, reference compound]",MIC,[1],0.54 µM
same,MIC Cryptococcus neoformans ATCC 90112,[1],0.50 µg/mL
same,MIC,[2],0.54 µM
same,MIC Candida albicans ATCC 10231,[2],0.50 µg/mL
same,MIC,"[3]; Table 6, no visible growth after 72 h at 35° C., read-out: MIC C. neof. ATCC 90112",0.55 µM
same,MIC,"[4]; Table 6, no visible growth after 48 h at 35° C., read-out: MIC C. albicans ATCC 10231",1.1 µM
same,MIC,[5],0.54 µM
same,MIC Aspergillus flavus ATCC 204 304,[5],0.50 µg/mL
same,MIC,[6],0.54 µM
same,MIC Scedosporium apiospermum 1-003-056,[6],0.50 µg/mL
same,MIC,[7],4.3 µM
same,MIC Scedosporium prolificans 1-003-040,[7],4.0 µg/mL
same,MIC,[8],0.27 µM
same,MIC Fusarium solani 04-132-4207,[8],0.25 µg/mL
same,MIC,[9],1.1 µM
same,MIC Aspergillus terreus ATCC 03-232-378,[9],1.0 µg/mL
same,MIC,[10],0.54 µM
same,MIC Aspergillus fumigatus ATCC 204 305,[10],0.50 µg/mL
"C[N+](C)(C)CCCCCCCCCC[N+](C)(C)C [Compound 4, 1,10-bis(trimethylammonium)decane dibromide, reference compound]",MIC,"[3]; Cryptococcus neoformans, ATCC90112, Table 6, no visible growth after 72 h at 35° C., read-out: MIC C. neof. ATCC 90112",88 µM
same,MIC,"[3]; Cryptococcus neoformans, ATCC90112, Table 7, read-out: MIC (μM) Crypto. (ATCC 90112)",≥ 350 µM
same,MIC,"[4]; Candida albicans, ATCC10231, Table 6, no visible growth after 48 h at 35° C., read-out: MIC C. albicans ATCC 10231",> 350 µM
same,MIC,"[4]; Candida albicans, ATCC10231, Table 7, read-out: MIC (μM) C. alb. (10231)",≥ 350 µM
same,PLB assay (% inhibition),[11]; 0.25 μM,250 μM = 0% 25 μM = 0% 2.5 μM = 0% 0.25 μM = 0%
same,PLB assay (% inhibition),[11]; 2.5 μM,250 μM = 0% 25 μM = 0% 2.5 μM = 0% 0.25 μM = 0%
same,"PLB, percentage inhibition of activity",[11]; 2.5 μM,0%
same,PLB assay (% inhibition),[11]; 25 μM,250 μM = 0% 25 μM = 0% 2.5 μM = 0% 0.25 μM = 0%
same,"PLB, percentage inhibition of activity",[11]; 25 μM,0%
same,PLB assay (% inhibition),[11]; 250 μM,250 μM = 0% 25 μM = 0% 2.5 μM = 0% 0.25 μM = 0%
same,"PLB, percentage inhibition of activity",[11]; 250 μM,0%
same,"enzyme (phospholipase) inhibition, in words",[12],neither enzyme inhibition
same,inhibition at 2.5 µM,[13],0%
same,inhibition at 25 µM,[13],0%
same,inhibition at 250 µM,[13],0%
same,Lyso assay (% inhibition) LPL,[14]; 0.25 μM,250 μM = 0% 25 μM = 0% 2.5 μM = 0% 0.25 μM = 0%
same,Lyso assay (% inhibition) LPTA,[14]; 0.25 μM,250 μM = 0% 25 μM = 0% 2.5 μM = 0% 0.25 μM = 0%
same,Lyso assay (% inhibition) LPL,[14]; 2.5 μM,250 μM = 0% 25 μM = 0% 2.5 μM = 0% 0.25 μM = 0%
same,Lyso assay (% inhibition) LPTA,[14]; 2.5 μM,250 μM = 0% 25 μM = 0% 2.5 μM = 0% 0.25 μM = 0%
same,Lyso assay (% inhibition) LPL,[14]; 25 μM,250 μM = 0% 25 μM = 0% 2.5 μM = 0% 0.25 μM = 0%
same,Lyso assay (% inhibition) LPTA,[14]; 25 μM,250 μM = 0% 25 μM = 0% 2.5 μM = 0% 0.25 μM = 0%
same,Lyso assay (% inhibition) LPL,[14]; 250 μM,250 μM = 0% 25 μM = 0% 2.5 μM = 0% 0.25 μM = 0%
same,Lyso assay (% inhibition) LPTA,[14]; 250 μM,250 μM = 0% 25 μM = 0% 2.5 μM = 0% 0.25 μM = 0%
"CN[C@H](CC(C)C)C(=O)N[C@H]1C(=O)N[C@@H](CC(N)=O)C(=O)N[C@H]2C(=O)N[C@H]3C(=O)N[C@H](C(=O)N[C@H](C(=O)O)c4cc(O)cc(O)c4-c4cc3ccc4O)[C@H](O)c3ccc(c(Cl)c3)Oc3cc2cc(c3O[C@@H]2O[C@H](CO)[C@@H](O)[C@H](O)[C@H]2O[C@H]2C[C@](C)(N)[C@H](O)[C@H](C)O2)Oc2ccc(cc2Cl)[C@H]1O [vancomycin, reference compound]",MIC,[15],1 µg/mL
"CC1(C)S[C@@H]2[C@H](NC(=O)[C@H](N)c3ccc(O)cc3)C(=O)N2[C@H]1C(=O)O [amoxicillin, reference compound]",MIC,Escherichia coli 25922,8 to 16 µg/mL
same,MIC,[16],0.06 to 0.12 µg/mL
same,MIC,[17],0.25 to 0.5 µg/mL
